Laboratory results taken from US8802597B2, “Herbicidal pyrimidines” (E I du Pont de Nemours and Company, priority 2003, dated 2014).
Where two headings read alike, the source gives them in different places.

Key:
Assay type in all cases: in vivo
soybean (Glycine max) = assay: Test C pre/postemergence; settings: Glycine max; for plant injury at 62 g/ha: 62 g ai/ha; for plant injury at 125 g/ha: 125 g ai/ha; for plant injury at 250 g/ha: 250 g ai/ha; for plant injury at 500 g/ha: 500 g ai/ha; for plant injury at 16 g/ha: 16 g ai/ha
Excerpt: (§1) Seeds or nutlets of plant species selected from bermudagrass (Cynodon dactylon), Surinam grass (Brachiaria decumbens), cocklebur (Xanthium strumarium), corn (Zea mays), crabgrass (Digitaria sanguinalis), woolly cupgrass (Eriochloa villosa), giant foxtail (Setaria faberii), goosegrass (Eleusine indica), johnsongrass (Sorghum halepense), kochia (Kochia scoparia), lambsquarters (Chenopodium album), morningglory (Ipomoea coccinea), eastern black nightshade (Solanum ptycanthum), yellow nutsedge (Cyperus esculentus), pigweed (Amaranthus retroflexus), common ragweed (Ambrosia elatior), soybean (Glycine max), common (oilseed) sunflower (Helianthus annuus), and velvetleaf (Abutilon theophrasti) were planted and treated preemergence with test chemicals formulated in a non-phytotoxic solvent mixture which included a surfactant.
(§2) At the same time, plants selected from these crop and weed species and also winter barley (Hordeum vulgare), blackgrass (Alopecurus myosuroides), canarygrass (Phalaris minor), chickweed (Stellaria media), downy brome (Bromus tectorum), green foxtail (Setaria viridis), Italian ryegrass (Lolium multiflorum), wheat (Triticum aestivum), wild oat (Avena fatua) and windgrass (Apera spica-venti) were treated with postemergence applications of some of the test chemicals formulated in the same manner. Plants ranged in height from 2 to 18 cm (1- to 4-leaf stage) for postemergence treatments. Plant species in the flooded paddy test consisted of rice (Oryza sativa), umbrella sedge (Cyperus difformis), duck salad (Heteranthera limosa) and barnyardgrass (Echinochloa crus-galli) grown to the 2-leaf stage for testing. Treated plants and controls were maintained in a greenhouse for 12 to 14 days, after which time all species were compared to controls and visually evaluated. Plant response ratings, summarized in Table C, are based on a scale of 0 to 100 where 0 is no effect and 100 is complete control. A dash (-) response means no test result.

[1] = test system: lambsquarters (Chenopodium album); assay: Test C pre/postemergence; settings: Chenopodium album; for pest or weed control at 62 g/ha: 62 g ai/ha; for pest or weed control at 125 g/ha: 125 g ai/ha; for pest or weed control at 250 g/ha: 250 g ai/ha; for pest or weed control at 500 g/ha: 500 g ai/ha; for pest or weed control at 16 g/ha: 16 g ai/ha; for pest or weed control at 31 g/ha: 31 g ai/ha
Excerpt: as §1, §2

[2] = test system: johnsongrass (Sorghum halepense); assay: Test C pre/postemergence; settings: Sorghum halepense; for pest or weed control at 62 g/ha: 62 g ai/ha; for pest or weed control at 125 g/ha: 125 g ai/ha; for pest or weed control at 250 g/ha: 250 g ai/ha; for pest or weed control at 500 g/ha: 500 g ai/ha; for pest or weed control at 16 g/ha: 16 g ai/ha; for pest or weed control at 31 g/ha: 31 g ai/ha
Excerpt: as §1, §2

[3] = test system: bermudagrass (Cynodon dactylon); assay: Test C pre/postemergence; settings: Cynodon dactylon; for pest or weed control at 62 g/ha: 62 g ai/ha; for pest or weed control at 125 g/ha: 125 g ai/ha; for pest or weed control at 250 g/ha: 250 g ai/ha; for pest or weed control at 500 g/ha: 500 g ai/ha; for pest or weed control at 16 g/ha: 16 g ai/ha; for pest or weed control at 31 g/ha: 31 g ai/ha
Excerpt: as §1, §2

[4] = test system: chickweed (Stellaria media); assay: Test C postemergence; settings: Stellaria media, post-emergence; for pest or weed control at 62 g/ha: 62 g ai/ha; for pest or weed control at 62 g/ha / pest or weed control at 125 g/ha: scale 0 to 100 (0 no effect, 100 complete control), read-out: Chickweed plant response rating; for pest or weed control at 125 g/ha: 125 g ai/ha
In short: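 Applications: preemergence onto seeded soil and postemergence onto 1- to 4-leaf seedlings, compound carried in non-phytotoxic solvent plus surfactant. Kept in greenhouse 12 to 14 days. Scored visually relative to untreated controls, 0 (no effect) to 100 (complete control).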

[5] = post-emergence, Postemergence, scale 0 to 100 (0 no effect, 100 complete control), read-out: Soybean plant response rating
[6] = post-emergence, Postemergence, scale 0 to 100, read-out: Plant response rating, Soybean
[7] = pre-emergence, Preemergence, scale 0 to 100, 0 no effect, 100 complete control, read-out: Plant response rating, Soybean
[8] = pre-emergence, Preemergence, scale 0 to 100, read-out: Plant response rating, Soybean
[9] = post-emergence, Postemergence, scale 0 to 100 (0 no effect, 100 complete control), read-out: Lambsquarters plant response rating
[10] = post-emergence, Postemergence, scale 0 to 100, read-out: Plant response rating, Lambsquarters
[11] = pre-emergence, Preemergence, scale 0 to 100, 0 no effect, 100 complete control, read-out: Plant response rating, Lambsquarters
[12] = pre-emergence, Preemergence, scale 0 to 100, read-out: Plant response rating, Lambsquarters
[13] = post-emergence, Postemergence, scale 0 to 100 (0 no effect, 100 complete control), read-out: Johnsongrass plant response rating
[14] = post-emergence, Postemergence, scale 0 to 100, read-out: Plant response rating, Johnsongrass
[15] = pre-emergence, Preemergence, scale 0 to 100, 0 no effect, 100 complete control, read-out: Plant response rating, Johnsongrass
[16] = pre-emergence, Preemergence, scale 0 to 100, read-out: Plant response rating, Johnsongrass
[17] = post-emergence, Postemergence, scale 0 to 100 (0 no effect, 100 complete control), read-out: Bermudagrass plant response rating
[18] = post-emergence, Postemergence, scale 0 to 100, read-out: Plant response rating, Bermudagrass
[19] = pre-emergence, Preemergence, scale 0 to 100, 0 no effect, 100 complete control, read-out: Plant response rating, Bermudagrass
[20] = pre-emergence, Preemergence, scale 0 to 100, read-out: Plant response rating, Bermudagrass
[21] = post-emergence, Postemergence, read-out: Plant response rating (scale of 0 to 100), Lambsquarters
[22] = post-emergence, Postemergence, read-out: Plant response rating (scale of 0 to 100), Johnsongrass
[23] = post-emergence, Postemergence, read-out: Plant response rating (scale of 0 to 100), Bermudagrass

`Nc1nc(C2CC2)nc(C(=O)OCc2ccccc2)c1Br` [Compound 22, phenylmethyl 6-amino-5-bromo-2-cyclopropyl-4-pyrimidinecarboxylate] showed a plant injury at 62 g/ha (soybean (Glycine max); [5]) of 95%, a plant injury at 125 g/ha (soybean (Glycine max); [5]) of 100% and a plant injury at 250 g/ha (soybean (Glycine max); [6]) of 100%. It also gave a plant injury at 500 g/ha (soybean (Glycine max); [6]) of 100%, a plant injury at 62 g/ha (soybean (Glycine max); [7]) of 95% and a plant injury at 125 g/ha (soybean (Glycine max); [8]) of 95%. The plant injury at 250 g/ha (soybean (Glycine max); [8]) was 100%, the plant injury at 500 g/ha (soybean (Glycine max); [8]) was 100% and the pest or weed control at 62 g/ha [1, 9] was 90%. The pest or weed control at 125 g/ha [1, 9] was 95%, the pest or weed control at 250 g/ha [1, 10] was 95% and the pest or weed control at 500 g/ha [1, 10] was 95%. It also gave a pest or weed control at 62 g/ha [1, 11] of 100%, a pest or weed control at 125 g/ha [1, 12] of 100% and a pest or weed control at 250 g/ha [1, 12] of 100%. For the same molecule, the pest or weed control at 500 g/ha [1, 12] was 100%, the pest or weed control at 62 g/ha [2, 13] was 40% and the pest or weed control at 125 g/ha [2, 13] was 80%. For the same molecule, the pest or weed control at 250 g/ha [2, 14] was 80%, the pest or weed control at 500 g/ha [2, 14] was 100% and the pest or weed control at 62 g/ha [2, 15] was 80%. For the same molecule, the pest or weed control at 125 g/ha [2, 16] was 100%, the pest or weed control at 250 g/ha [2, 16] was 100% and the pest or weed control at 500 g/ha [2, 16] was 100%. It also gave a pest or weed control at 62 g/ha [3, 17] of 50%, a pest or weed control at 125 g/ha [3, 17] of 60% and a pest or weed control at 250 g/ha [3, 18] of 60%. It also gave a pest or weed control at 500 g/ha [3, 18] of 60%, a pest or weed control at 62 g/ha [3, 19] of 0% and a pest or weed control at 125 g/ha [3, 20] of 50%. It also gave a pest or weed control at 250 g/ha [3, 20] of 50%, a pest or weed control at 500 g/ha [3, 20] of 90% and a pest or weed control at 62 g/ha [4] of 30%. The pest or weed control at 125 g/ha [4] was 60%, the pest or weed control at 250 g/ha ([4]; 250 g ai/ha, scale 0 to 100, read-out: Plant response rating, Chickweed) was 85% and the pest or weed control at 500 g/ha ([4]; 500 g ai/ha, scale 0 to 100, read-out: Plant response rating, Chickweed) was 90%.
`COC(=O)c1nc(C2CC2)nc(N)c1F` [Compound 25] was tested, and the plant injury at 16 g/ha (soybean (Glycine max); post-emergence, Postemergence, read-out: Plant response rating (scale of 0 to 100), Soybean) was 40%, the plant injury at 31 g/ha (soybean (Glycine max); post-emergence, Postemergence, 31 g ai/ha, read-out: Plant response rating (scale of 0 to 100), Soybean) was 90% and the plant injury at 62 g/ha (soybean (Glycine max); [5]) was 90%. It also gave a plant injury at 125 g/ha (soybean (Glycine max); [5]) of 90%, a plant injury at 16 g/ha (soybean (Glycine max); [7]) of 30% and a plant injury at 62 g/ha (soybean (Glycine max); [7]) of 60%. The plant injury at 125 g/ha (soybean (Glycine max); [8]) was 65%, the pest or weed control at 16 g/ha [1, 21] was 30% and the pest or weed control at 31 g/ha [1, 21] was 60%. For the same molecule, the pest or weed control at 62 g/ha [1, 9] was 85%, the pest or weed control at 125 g/ha [1, 9] was 90% and the pest or weed control at 16 g/ha [1, 11] was 0%. It also gave a pest or weed control at 31 g/ha [1, 11] of 0%, a pest or weed control at 62 g/ha [1, 11] of 30% and a pest or weed control at 125 g/ha [1, 12] of 50%. The pest or weed control at 16 g/ha [2, 22] was 0%, the pest or weed control at 31 g/ha [2, 22] was 10% and the pest or weed control at 62 g/ha [2, 13] was 10%. The pest or weed control at 125 g/ha [2, 13] was 20%, the pest or weed control at 16 g/ha [2, 15] was 0% and the pest or weed control at 31 g/ha [2, 15] was 0%. It also gave a pest or weed control at 62 g/ha [2, 15] of 0%, a pest or weed control at 125 g/ha [2, 16] of 0% and a pest or weed control at 16 g/ha [3, 23] of 0%. For the same molecule, the pest or weed control at 31 g/ha [3, 23] was 0%, the pest or weed control at 62 g/ha [3, 17] was 0% and the pest or weed control at 125 g/ha [3, 17] was 0%. It also gave a pest or weed control at 16 g/ha [3, 19] of 0%, a pest or weed control at 31 g/ha [3, 19] of 0% and a pest or weed control at 62 g/ha [3, 19] of 0%. The pest or weed control at 125 g/ha [3, 20] was 10%, the pest or weed control at 16 g/ha ([4]; 16 g ai/ha, read-out: Plant response rating (scale of 0 to 100), Chickweed) was 0% and the pest or weed control at 62 g/ha [4] was 40%. It also gave a pest or weed control at 125 g/ha [4] of 85%.
